Organism: Rattus norvegicus
Test: Open TG-GATES - Regimen: Single
Assay type: toxicity, organism-based, Sprague-Dawley
Parameters: regimen Single, gender Male, age 6 weeks
Settings: in vivo, po, 0 mg/kg, route gavage, dose level Control; for APTT / Bas / Eos / Fbg / Hb / Ht / Lym / MCH / MCHC / Mono / Neu / PT / Plat / RBC / Ret / WBC / MCV: tissue Blood; for KIDNEY_L / KIDNEY_R / KIDNEY_TOTAL: tissue Kidney; for LIVER: tissue Liver; for ALP / ALT / AST / BUN / CRE / Ca / Cl / DBIL / GLC / IP / K / LDH / Na / PL / RALB / TBIL / TC / TG / TP / gamma-GTP: tissue Plasma

Structure (SMILES): CCOc1ccc(NC(C)=O)cc1 [PHENACETIN]
- TERMINAL_BW (3 h): 210.2 g
- APTT (3 h): 17.4 s
- Bas (3 h): 0%
- Eos (3 h): 0.6%
- Fbg (3 h): 292 mg/dL
- Hb (3 h): 13.3 g/dL
- Ht (3 h): 40.2%
- Lym (3 h): 78.2%
- MCH (3 h): 20.7 pg
- MCHC (3 h): 33%
- Mono (3 h): 3%
- Neu (3 h): 17.8%
- PT (3 h): 13.7 s
- Plat (3 h): 114.8 x10_4/uL
- RBC (3 h): 641.4 x10_4/ul
- Ret (3 h): 8.1%
- WBC (3 h): 96.3 x10_2/uL
- KIDNEY_L (3 h): 0.9 g
- KIDNEY_R (3 h): 0.9 g
- KIDNEY_TOTAL (3 h): 1.8 g
- LIVER (3 h): 9.1 g
- ALP (3 h): 1765 IU/L
- ALT (3 h): 39.6 IU/L
- AST (3 h): 74.4 IU/L
- BUN (3 h): 11.6 mg/dL
- CRE (3 h): 0.2 mg/dL
- Ca (3 h): 11.1 mg/dL
- Cl (3 h): 105.4 meq/L
- DBIL (3 h): 0 mg/dL
- GLC (3 h): 169 mg/dL
- IP (3 h): 8.8 mg/dL
- K (3 h): 4.2 meq/L
- LDH (3 h): 115.4 IU/L
- Na (3 h): 142.2 meq/L
- PL (3 h): 153.4 mg/dL
- RALB (3 h): 2.5 g/dL
- TBIL (3 h): 0.05 mg/dL
- TC (3 h): 87.8 mg/dL
- TG (3 h): 53.2 mg/dL
- TP (3 h): 5.4 g/dL
- gamma-GTP (3 h): 1.8 IU/L
- TERMINAL_BW (6 h): 211 g
- APTT (6 h): 18.2 s
- Bas (6 h): 0.4%
- Eos (6 h): 1%
- Fbg (6 h): 290.8 mg/dL
- Hb (6 h): 13.6 g/dL
- Ht (6 h): 40.8%
- Lym (6 h): 76.2%
- MCH (6 h): 20.7 pg
- MCHC (6 h): 33.4%
- MCV (6 h): 62.2 fL
- Mono (6 h): 2.6%
- Neu (6 h): 19.4%
- PT (6 h): 14.1 s
- Plat (6 h): 119.9 x10_4/uL
- RBC (6 h): 656.6 x10_4/ul
- Ret (6 h): 7.6%
- WBC (6 h): 104.2 x10_2/uL
- KIDNEY_L (6 h): 0.9 g
- KIDNEY_R (6 h): 1 g
- KIDNEY_TOTAL (6 h): 1.9 g
- LIVER (6 h): 8.7 g
- ALP (6 h): 1471.4 IU/L
- AST (6 h): 74.4 IU/L
- BUN (6 h): 9.6 mg/dL
- CRE (6 h): 0.2 mg/dL
- Ca (6 h): 11 mg/dL
- Cl (6 h): 106 meq/L
- DBIL (6 h): 0 mg/dL
- GLC (6 h): 171.6 mg/dL
- IP (6 h): 9.3 mg/dL
- K (6 h): 4.1 meq/L
- LDH (6 h): 73.8 IU/L
- Na (6 h): 144 meq/L
- PL (6 h): 142 mg/dL
- RALB (6 h): 2.5 g/dL
- TBIL (6 h): 0.052 mg/dL
- TC (6 h): 78.8 mg/dL
- TG (6 h): 50 mg/dL
- TP (6 h): 5.4 g/dL
- gamma-GTP (6 h): 1.4 IU/L
- TERMINAL_BW (9 h): 210.5 g
- APTT (9 h): 17.7 s
- Bas (9 h): 0.2%
- Eos (9 h): 0.8%
- Fbg (9 h): 302.8 mg/dL
- Hb (9 h): 13.2 g/dL
- Ht (9 h): 39.7%
- Lym (9 h): 77.4%
- MCH (9 h): 21.6 pg
- MCHC (9 h): 33.3%
- MCV (9 h): 64.9 fL
- Mono (9 h): 2.6%
- PT (9 h): 13.7 s
- Plat (9 h): 116.6 x10_4/uL
- RBC (9 h): 611.4 x10_4/ul
- Ret (9 h): 8.6%
- WBC (9 h): 81.1 x10_2/uL
- KIDNEY_L (9 h): 0.9 g
- KIDNEY_R (9 h): 0.9 g
- KIDNEY_TOTAL (9 h): 1.9 g
- LIVER (9 h): 8.4 g
- ALP (9 h): 1519.6 IU/L
- ALT (9 h): 36.8 IU/L
- AST (9 h): 75.4 IU/L
- BUN (9 h): 9.2 mg/dL
- CRE (9 h): 0.2 mg/dL
- Ca (9 h): 10.9 mg/dL
- DBIL (9 h): 0.002 mg/dL
- GLC (9 h): 163.6 mg/dL
- IP (9 h): 9.8 mg/dL
- K (9 h): 4 meq/L
- LDH (9 h): 75.8 IU/L
- Na (9 h): 143.4 meq/L
- PL (9 h): 145.6 mg/dL
- RALB (9 h): 2.5 g/dL
- TBIL (9 h): 0.066 mg/dL
- TC (9 h): 81.6 mg/dL
- TG (9 h): 44.2 mg/dL
- TP (9 h): 5.4 g/dL
- gamma-GTP (9 h): 1.2 IU/L
- TERMINAL_BW (24 h): 226.9 g
- APTT (24 h): 17.2 s
- Bas (24 h): 0%
- Eos (24 h): 1%
- Fbg (24 h): 296.2 mg/dL
- Hb (24 h): 13.3 g/dL
- Ht (24 h): 40.1%
- Lym (24 h): 82.4%
- MCH (24 h): 21.1 pg
- MCHC (24 h): 33%
- MCV (24 h): 63.7 fL
- Mono (24 h): 2.2%
- Neu (24 h): 13.6%
- PT (24 h): 13.6 s
- Plat (24 h): 120.9 x10_4/uL
- RBC (24 h): 630.4 x10_4/ul
- Ret (24 h): 7.8%
- WBC (24 h): 100.3 x10_2/uL
- KIDNEY_L (24 h): 1 g
- KIDNEY_R (24 h): 1 g
- KIDNEY_TOTAL (24 h): 1.9 g
- LIVER (24 h): 10.7 g
- ALP (24 h): 1883.2 IU/L
- ALT (24 h): 37.2 IU/L
- AST (24 h): 66.2 IU/L
- BUN (24 h): 15.2 mg/dL
- CRE (24 h): 0.2 mg/dL
- Ca (24 h): 11.1 mg/dL
- Cl (24 h): 104.4 meq/L
- DBIL (24 h): 0.008 mg/dL
- GLC (24 h): 179 mg/dL
- IP (24 h): 7.9 mg/dL
- K (24 h): 4.2 meq/L
- LDH (24 h): 106.8 IU/L
- PL (24 h): 161.8 mg/dL
- RALB (24 h): 2.6 g/dL
- TBIL (24 h): 0.038 mg/dL
- TC (24 h): 81.8 mg/dL
- TG (24 h): 122.2 mg/dL
- TP (24 h): 5.7 g/dL
